Values quoted from earlier work as cited in patent US20150196708A1, “SYSTEMS, METHODS AND COMPOSITIONS FOR IMPROVED TREATMENT OF ACIDOSIS” (The Regents of the University of California, priority 2012, published 2015).

Columns and labels:
[1] = test system: patients with acidosis; settings: literature (Cooper et al., 1990; Leung et al., 1994)
[2] = room temperature; incorporates CO2(aq)/H2CO3(aq) equilibrium

| SMILES | clinical benefit in human studies [1] | Ka1 (deprotonation) [2] |
| --- | --- | --- |
| O=C([O-])O.[Na+] [bicarbonate, sodium bicarbonate] | no more beneficial effect than the administration of similar quantities of sodium chloride |  |
| O=C(O)O [carbonic acid] |  | 4.3×10^−7 |
